Experiment [1] has as its target T1, EGFR L858R/T790M/C797S mutant enzyme (Homo sapiens, UniProt P00533, C797S/L858R/T790M).
T1 construct: purchased SignalChem
In words: Inhibitory capacity against EGFR L858R/T790M/C797S mutant enzyme (Cisbio HTRF). Format: biochemical. Conditions: for pIC50: HTRF, 1 mM ATP, 37° C. for 2 hours, 7 concentrations. How it is done: Experimental Example 1: Measurement of Inhibitory Capacity Against EGFR L858R/T790M/C797S
In order to confirm the inhibitory capacity of the compounds prepared in Examples 1 to 13 provided in one aspect of the present invention against EGFR mutation, the following experiment was performed.
Particularly, the activity of the compounds of the present invention against EGFR mutant enzyme was measured using the HTRF system of Cisbio Co. As an EGFR L858R/T790M/C797S mutant enzyme, a protein provided by SignalChem was purchased and used as an enzyme source.
The composition of the assay buffer used for the activity measurement was as follows: 50 mM Tris-HCl (pH 7.5), 100 mM NaCl, 7.5 mM MgCl2, 3 mM KCl, 0.01% Tween 20, 0.1% BSA, and 1 mM DTT. Herein, an enzyme reaction was performed using a peptide substrate labeled with ATP at the concentration of 1 mM and biotin at the concentration of 0.5 μM. The analysis of the EGFR activity inhibitory effect of the compounds was performed according to the following analytical reaction recipe. • Component 1: 4 μl of EGFR mutant enzyme • Component 2: 2 μl of compound solution • Component 3: 4 μl of ATP and biotin-labeled peptide mixture
The enzyme reaction was initiated by mixing the component 1 and the component 2 first and then adding the component 3 thereto. After reacting the mixture at 37° C. for 2 hours, 10 μl of a measurement solution consisting of streptavidin-XL665 and europium-labeled anti-phosphotyrosine antibody provided by Cisbio was added to the enzyme reaction solution, followed by reaction at room temperature for 1 hour. Finally, the ratio of the fluorescence values at 615 nm and 665 nm was calculated using Envision equipment of Perkin-Elmer to quantitatively measure the enzyme activity and confirm the inhibitory ability of the compounds. The values measured at 7 concentrations of the compound were analyzed using Prism program (version 5.01, Graphpad Software, Inc.), and the IC50 value, an index of the inhibitory ability of the compound, was calculated.
Background: In TR-FRET formats the signal depends on donor and acceptor labels being close together.

For experiment [2], the system named is Ba/F3 EGFR L858R/T790M (LT) cells. Kind of experiment: Anticancer activity in BaF3 cells overexpressing EGFR L858R/T790M (CellTiter-Glo), alone or combined with cetuximab. Format: cell-based. Particulars: cells overexpressed with EGFR L858R/T790M; combined with cetuximab; 72 hours; FIG. 1 and FIG. 2. How it is done:
(§1) Experimental Example 2: Evaluation of Anticancer Activity in BaF3 Cells Overexpressed with Various EGFR Mutations
(§2) In order to confirm that the compound represented by formula 1 according to the present invention acted as an allosteric inhibitor against EGFR wild-type and mutants, the inhibitory effect on EGFR wild-type and mutants in Ba/F3 cell line was evaluated. In addition, in order to evaluate the cellular activity when the compound according to the present invention was co-administered with an existing drug, the cellular activity according to the combined administration was evaluated using Cetuximab used alone or in combination with chemotherapy in metastatic colorectal cancer and metastatic squamous head and neck cancer.
(§3) Particularly, the activity of the compound of the present invention against the wild-type and mutant Ba/F3 EGFR cell lines was measured as follows using the CellTiter-Glo system of Promega. […]
(§4) BaF3 cells were aliquoted in a 96 well cell culture plate at the density of 2500 cells/50 ul per well, to which 50 ul of the compound represented by formula 1 was treated at the concentrations of 0, 0.03, 0.1, 0.3, and 1 μM. […] Finally, the ratio of the fluorescence values at 570 nm was quantitatively measured using a luminometer, and the ability of the compound to inhibit cell viability was confirmed. […]

The subject of experiment [3] is Ba/F3 L858R/T790M/C797S (LTC) cells. Kind of experiment: Anticancer activity in BaF3 cells overexpressing EGFR L858R/T790M/C797S (CellTiter-Glo), alone or combined with cetuximab. Format: cell-based. Conditions: cells overexpressed with EGFR L858R/T790M/C797S; combined with cetuximab; 72 hours; FIG. 1 and FIG. 2. The protocol:
as §1, §2, §3, §4
Background: Cellular ATP, detected with luciferase, serves as a proxy for viable cell number.

pIC50: −log10 of the molar value. A value given as a limit tells only on which side of the number the result lay.

T1 sequence (P00533 25-1210 T790M/C797S/L858R): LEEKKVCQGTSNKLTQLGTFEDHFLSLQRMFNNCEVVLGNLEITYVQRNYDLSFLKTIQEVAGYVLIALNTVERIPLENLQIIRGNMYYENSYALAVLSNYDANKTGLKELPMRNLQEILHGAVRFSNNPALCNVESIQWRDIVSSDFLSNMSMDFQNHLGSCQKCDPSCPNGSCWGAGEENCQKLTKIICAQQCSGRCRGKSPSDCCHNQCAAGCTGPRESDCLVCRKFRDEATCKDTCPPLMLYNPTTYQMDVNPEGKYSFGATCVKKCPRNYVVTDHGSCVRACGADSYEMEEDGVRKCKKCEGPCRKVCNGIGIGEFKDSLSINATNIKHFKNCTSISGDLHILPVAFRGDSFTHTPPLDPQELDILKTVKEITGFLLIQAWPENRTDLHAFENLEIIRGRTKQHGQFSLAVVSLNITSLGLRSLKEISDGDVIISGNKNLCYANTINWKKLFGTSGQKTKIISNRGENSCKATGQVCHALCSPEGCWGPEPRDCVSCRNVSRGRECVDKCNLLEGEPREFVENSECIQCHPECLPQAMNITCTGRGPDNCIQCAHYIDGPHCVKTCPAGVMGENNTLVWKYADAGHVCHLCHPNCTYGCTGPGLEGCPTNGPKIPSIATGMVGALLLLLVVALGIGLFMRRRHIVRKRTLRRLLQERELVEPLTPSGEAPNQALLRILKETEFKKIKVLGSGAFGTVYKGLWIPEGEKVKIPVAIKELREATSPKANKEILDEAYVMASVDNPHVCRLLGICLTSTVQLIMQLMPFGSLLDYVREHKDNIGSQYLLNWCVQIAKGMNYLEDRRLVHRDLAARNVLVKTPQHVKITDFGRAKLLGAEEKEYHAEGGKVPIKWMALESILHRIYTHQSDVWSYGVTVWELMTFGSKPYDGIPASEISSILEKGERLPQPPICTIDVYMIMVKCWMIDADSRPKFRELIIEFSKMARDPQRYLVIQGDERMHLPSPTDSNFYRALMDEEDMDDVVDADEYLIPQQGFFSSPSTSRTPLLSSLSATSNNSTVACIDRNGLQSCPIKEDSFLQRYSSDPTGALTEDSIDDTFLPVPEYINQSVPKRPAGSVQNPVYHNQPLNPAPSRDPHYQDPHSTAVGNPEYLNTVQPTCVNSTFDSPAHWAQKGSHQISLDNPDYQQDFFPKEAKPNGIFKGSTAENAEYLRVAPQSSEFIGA

For `O=C(N[C@@H](c1cc2ccccc2[nH]1)c1cc(F)ccc1O)c1cccc(-c2ccc(N3CCNCC3)cc2)c1` [Example 1, (R)—N-((5-fluoro-2-hydroxyphenyl)(1H-indole-2-yl)methyl)-4′-(piperazine-1-yl)-[1,1′-biphenyl]-3-carboxamide], the pIC50 in experiment [1] is 7.34.

On to `CC(=O)N1CCN(c2ccc(-c3cccc(C(=O)N[C@@H](c4cc5ccccc5[nH]4)c4cc(F)ccc4O)c3)cc2)CC1` [Example 2, (R)-4′-(4-acetylpiperazine-1-yl)-N-((5-fluoro-2-hydroxyphenyl)(1H-indole-2-yl)methyl)-[1,1′-biphenyl]-3-carboxamide], for which, in experiment [1], the pIC50 is 7.21.

On to `NC1CCN(c2ccc(-c3cccc(C(=O)N[C@@H](c4cc5ccccc5[nH]4)c4cc(F)ccc4O)c3)cc2)CC1` [Example 3, (R)-4′-(4-aminopiperidine-1-yl)-N-((5-fluoro-2-hydroxyphenyl)(1H-indole-2-yl)methyl)-[1,1′-biphenyl]-3-carboxamide], for which the pIC50 in experiment [1] is 8.15. Besides, the “inhibitory capacity against EGFR L858R/T790M/C797S mutation (in words)” value in experiment [1] (summary of Table 2) was “excellent inhibitory capacity”. In addition, the “anticancer activity in combination with cetuximab (cell viability relative to cetuximab only)” value in experiment [2] and in experiment [3] was “synergistic anticancer activity” throughout.

The molecule `NC1CCN(c2ccc(-c3cccc(C(=O)N[C@@H](c4cc5ccccc5[nH]4)c4cc(Cl)ccc4O)c3)cc2)CC1` [Example 4, (R)-4′-(4-aminopiperidine-1-yl)-N-((5-chloro-2-hydroxyphenyl)(1H-indole-2-yl)methyl)-[1,1′-biphenyl]-3-carboxamide] had a pIC50 in experiment [1] of 6.19.

In experiment [1], `CN1CCN(C2CCN(c3ccc(-c4cccc(C(=O)N[C@@H](c5cc6ccccc6[nH]5)c5cc(F)ccc5O)c4)cc3)CC2)CC1` [Example 5, (R)—N-((5-fluoro-2-hydroxyphenyl)(1H-indole-2-yl)methyl)-4′-(4-(4-methylpiperazine-1-yl)piperidine-1-yl)-[1,1′-biphenyl]-3-carboxamide] showed a pIC50 of 5.59.

Consider `O=C(N[C@@H](c1cc2ccccc2[nH]1)c1cc(F)ccc1O)c1cccc(-c2ccc(N3CCC(N4CCNCC4)CC3)cc2)c1` [Example 6, (R)—N-((5-fluoro-2-hydroxyphenyl)(1H-indole-2-yl)methyl)-4′-(4-(piperazine-1-yl)piperidine-1-yl)-[1,1′-biphenyl]-3-carboxamide], for which the negative logarithm of the IC50 (pIC50) in experiment [1] was 6.72.

In experiment [1], `CN(C)C1CCN(c2ccc(-c3cccc(C(=O)N[C@@H](c4cc5ccccc5[nH]4)c4cc(F)ccc4O)c3)cc2)CC1` [Example 7, (R)-4′-(4-(dimethylamino)piperidine-1-yl)-N-((5-fluoro-2-hydroxyphenyl)(1H-indole-2-yl)methyl)-[1,1′-biphenyl]-3-carboxamide] had a pIC50 of 6.80.

Molecule `O=C(N[C@@H](c1cc2ccccc2[nH]1)c1cc(F)ccc1O)c1cccc(-c2ccc(N3CCN(C4CCNCC4)CC3)cc2)c1` [Example 8, (R)—N-((5-fluoro-2-hydroxyphenyl)(1H-indole-2-yl)methyl)-4′-(4-(piperidine-4-yl)piperazine-1-yl)-[1,1′-biphenyl]-3-carboxamide] had a negative-log IC50 (pIC50) in experiment [1] of 6.85.

`CN1CCC(N2CCN(c3ccc(-c4cccc(C(=O)N[C@@H](c5cc6ccccc6[nH]5)c5cc(F)ccc5O)c4)cc3)CC2)CC1` [Example 9, (R)—N-((5-fluoro-2-hydroxyphenyl)(1H-indole-2-yl)methyl)-4′-(4-(1-methylpiperidine-4-yl)piperazine-1-yl)-[1,1′-biphenyl]-3-carboxamide] had a pIC50 in experiment [1] of 7.14.

`O=C(N[C@@H](c1cc2ccccc2[nH]1)c1cc(F)ccc1O)c1cccc(-c2ccc(N3CCCC3)cc2)c1` [Example 10, (R)—N-((5-fluoro-2-hydroxyphenyl)(1H-indole-2-yl)methyl)-4′-(pyrrolidine-1-yl)-[1,1′-biphenyl]-3-carboxamide] had a negative-log IC50 (pIC50) in experiment [1] of 5.23.

`N[C@@H]1CCN(c2ccc(-c3cccc(C(=O)N[C@@H](c4cc5ccccc5[nH]4)c4cc(F)ccc4O)c3)cc2)C1` [Example 11, 4′-((R)-3-aminopyrrolidine-1-yl)-N—((R)-(5-fluoro-2-hydroxyphenyl)(1H-indole-2-yl)methyl)-[1,1′-biphenyl]-3-carboxamide]: the pIC50 in experiment [1] is 6.80.

With `N[C@H]1CCN(c2ccc(-c3cccc(C(=O)N[C@@H](c4cc5ccccc5[nH]4)c4cc(F)ccc4O)c3)cc2)C1` [Example 12, 4′-((S)-3-aminopyrrolidine-1-yl)-N—((R)-(5-fluoro-2-hydroxyphenyl)(1H-indole-2-yl)methyl)-[1,1′-biphenyl]-3-carboxamide], the pIC50 in experiment [1] is 6.74.

Molecule `N[C@H]1CCN(c2ccc(-c3cccc(C(=O)N[C@@H](c4cc5ccccc5[nH]4)c4cc(Cl)ccc4O)c3)cc2)C1` [Example 13, 4′-((S)-3-aminopyrrolidine-1-yl)-N—((R)-(5-chloro-2-hydroxyphenyl)(1H-indole-2-yl)methyl)-[1,1′-biphenyl]-3-carboxamide] had a pIC50 in experiment [1] of less than 5.00.

What is called pIC50 is −log10 of the IC50, conventionally taken in molar units.

These data come from patent publication US12630511B2, “Benzamide derivative, preparation method therefor, and pharmaceutical composition comprising same as active ingredient for prevention or treatment of cancer” (KOREA RESEARCH INSTITUTE OF CHEMICAL TECHNOLOGY, priority 2019, dated 2026).
